Source: the supplement of paper PMC11208160

Assay: recombinant UMI read abundance after kanamycin selection (control-corrected) (log10(CPM+1)); higher = more efficient recombination; extreme values may be limits of the assay; sequences stand for … in AGTGCAGAGAAAATCGGCCAGTTTTCTCTGCCTGCAGTCCGCATGCCGTGGGACCCCTTGGGTTCTAACCTGTTGCCTAGATTTATGCAGCGGACTGCCTTTCTCCCAAAGTGATAAACCGG…AGGTTGGTTTCACT; site = the 11-nt donor
Summary of the method: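 Values are reported as log10(CPM+1), obtained by converting sequencing counts to CPM, averaging replicates and scaling by control-derived factors. The counts came from recombinant UMIs amplified by PCR across the donor–target junction. These UMIs came from a pooled Escherichia coli screen of donor and donor-binding-loop pairs for the IS621 bridge recombinase, plated with IPTG (0.07 mM) plus kanamycin or left unselected, in two replicates each.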
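Further: IS621 bridge recombinase in Escherichia coli cells against a fixed T5 target plasmid.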

Row | Sequence | recombinant UMI read abundance (log10)
1 | CCACAGTCATGGACCGGTTTTCCCGGTAATCCGTATTTGTG (site CCACAGTCTCA) | 1.93
2 | CGAGGACCATGGACCGGTTTTCCCGGTAATCCGTATTTGGG (site CGAGGGCCTCC) | 0.0101
3 | ACACACCCATGGACCGGTTTTCCCGGTAATCCGTATTTGTG (site ACACACCCTCA) | 0.012
4 | GGATAGTCATGGACCGGTTTTCCCGGTAATCCGTATTTGCC (site GGATAGGCTGG) | 0
5 | GGCCACCCATGGACCGGTTTTCCCGGTAATCCGTATTTGTT (site GGCCACCCTAC) | 0.0176
6 | GAGAATACATGGACCGGTTTTCCCGGTAATCCGTATTTGCA (site CAGAATACTTG) | 0.0136
7 | AGAGTGCCATGGACCGGTTTTCCCGGTAATCCGTATTTGGG (site AGAGTGCCTCC) | 0.0257
8 | ACCAGAACATGGACCGGTTTTCCCGGTAATCCGTATTTGAG (site ACTAGAACTCT) | 0.155
9 | CGGGTACCATGGACCGGTTTTCCCGGTAATCCGTATTTGAT (site CGGGGACCTAT) | 0
10 | TAATGTGCATGGACCGGTTTTCCCGGTAATCCGTATTTGGG (site TAATGCGCTCC) | 0.00475
11 | ATCGATACATGGACCGGTTTTCCCGGTAATCCGTATTTGAC (site ATCTATACTGT) | 0.652
12 | AGTGCTGCATGGACCGGTTTTCCCGGTAATCCGTATTTGCA (site AGTGCTGCTTG) | 1.21
13 | GTAGGAACATGGACCGGTTTTCCCGGTAATCCGTATTTGAC (site GTAGGCACTGT) | 1.3
14 | CGCAGTACATGGACCGGTTTTCCCGGTAATCCGTATTTGCT (site CGCCGTACTAG) | 0
15 | TGCCCGGCATGGACCGGTTTTCCCGGTAATCCGTATTTGGC (site TGGCCGGCTGC) | 0
16 | TCATAGTCATGGACCGGTTTTCCCGGTAATCCGTATTTGCA (site TCATAATCTTG) | 2.41
17 | GGGATAACATGGACCGGTTTTCCCGGTAATCCGTATTTGCC (site GGGATAACTGG) | 0
18 | GTGCGTGCATGGACCGGTTTTCCCGGTAATCCGTATTTGGT (site GTGCCTGCTAC) | 0.00736
19 | AGGACGGCATGGACCGGTTTTCCCGGTAATCCGTATTTGCA (site AGGACGGCTTG) | 2.23
20 | ACAATATCATGGACCGGTTTTCCCGGTAATCCGTATTTGCA (site ACAATATCTTG) | 2.85
21 | CGAAGTGCATGGACCGGTTTTCCCGGTAATCCGTATTTGGG (site CGAAGTGCTCC) | 0.671
22 | GGAACGTCATGGACCGGTTTTCCCGGTAATCCGTATTTGTT (site GGAACGTCTAA) | 0.993
23 | TGGGAGTCATGGACCGGTTTTCCCGGTAATCCGTATTTGCC (site GGGGAGTCTGG) | 0.0303
24 | CAAGCAGCATGGACCGGTTTTCCCGGTAATCCGTATTTGGT (site CAAGCAGCTAA) | 0.922
25 | GGTACGGCATGGACCGGTTTTCCCGGTAATCCGTATTTGTT (site GGTACGGCTAA) | 0.0127

Row | Sequence | recombinant UMI read abundance (log10)
26 | TTAAATCCATGGACCGGTTTTCCCGGTAATCCGTATTTGGT (site TTAAATCCTAC) | 0.0199
27 | CTGTTTGCATGGACCGGTTTTCCCGGTAATCCGTATTTGAA (site CTGTTTGCTTT) | 1.66
28 | TTAGTTGCATGGACCGGTTTTCCCGGTAATCCGTATTTGTG (site TTAGATGCTCA) | 0.0164
29 | CTCCCTACATGGACCGGTTTTCCCGGTAATCCGTATTTGAG (site ATCCCTACTCT) | 0.0141
30 | GGTCAGTCATGGACCGGTTTTCCCGGTAATCCGTATTTGGA (site GGTCAGTCTTC) | 0.503
31 | AGGACTACATGGACCGGTTTTCCCGGTAATCCGTATTTGAG (site AGGACTACTAT) | 0.00837
32 | TAAAGTCCATGGACCGGTTTTCCCGGTAATCCGTATTTGTG (site TAAAGTCCTTA) | 0.19
33 | CTTTCGCCATGGACCGGTTTTCCCGGTAATCCGTATTTGCT (site CTTTCGCCTAG) | 0.0294
34 | GTTGTTCCATGGACCGGTTTTCCCGGTAATCCGTATTTGCT (site GTTGTTCCTAA) | 0.0109
35 | GGTCCACCATGGACCGGTTTTCCCGGTAATCCGTATTTGTA (site GGTCCATCTTA) | 0.0355
36 | GTTTACCCATGGACCGGTTTTCCCGGTAATCCGTATTTGGG (site GTTTACCCTCC) | 0.00501
37 | TCATAGACATGGACCGGTTTTCCCGGTAATCCGTATTTGAC (site TCATAGACTGT) | 0.421
38 | AGATAATCATGGACCGGTTTTCCCGGTAATCCGTATTTGCG (site AGATAATCTCG) | 2.61
39 | CCCCACACATGGACCGGTTTTCCCGGTAATCCGTATTTGTG (site CCCCACACTCA) | 0.00514
40 | ATGGGGTCATGGACCGGTTTTCCCGGTAATCCGTATTTGAC (site ATGGGGTCTGT) | 3.47
41 | CTCCCTACATGGACCGGTTTTCCCGGTAATCCGTATTTGAG (site CGCCCTACTCT) | 0.0122
42 | CTCTAGCCATGGACCGGTTTTCCCGGTAATCCGTATTTGCC (site CACTAGCCTGG) | 0.69
43 | CGAGTCACATGGACCGGTTTTCCCGGTAATCCGTATTTGGG (site CGAGTCACTCC) | 0.184
44 | CACACAACATGGACCGGTTTTCCCGGTAATCCGTATTTGAA (site CACACAACTTT) | 1.84
45 | CCGTTCTCATGGACCGGTTTTCCCGGTAATCCGTATTTGGG (site CCATTCTCTCC) | 0.00249
46 | CGGACATCATGGACCGGTTTTCCCGGTAATCCGTATTTGCT (site CGGATATCTAG) | 1.9
47 | ATAGTATCATGGACCGGTTTTCCCGGTAATCCGTATTTGAA (site CTAGTATCTGT) | 0.977
48 | ACGCGGACATGGACCGGTTTTCCCGGTAATCCGTATTTGCA (site ACGCGGACTTG) | 2.76
49 | GCACATCCATGGACCGGTTTTCCCGGTAATCCGTATTTGAC (site GCACATCCTGT) | 0
50 | CTGTCCGCATGGACCGGTTTTCCCGGTAATCCGTATTTGAT (site CTGTCCGCTAT) | 1.96

Row | Sequence | recombinant UMI read abundance (log10)
51 | CTCTAGCCATGGACCGGTTTTCCCGGTAATCCGTATTTGCC (site CTCTAGCCTGG) | 0
52 | TAGCCTTCATGGACCGGTTTTCCCGGTAATCCGTATTTGTT (site TAGCCTTCTAA) | 1.08
53 | CGATCATCATGGACCGGTTTTCCCGGTAATCCGTATTTGCA (site CGATCATCTGG) | 0
54 | CCCGGTCCATGGACCGGTTTTCCCGGTAATCCGTATTTGCA (site CCCAGTCCTTG) | 0
55 | ATCTAATCATGGACCGGTTTTCCCGGTAATCCGTATTTGGA (site ATCTAATCTTC) | 2.05
56 | TGGAGCTCATGGACCGGTTTTCCCGGTAATCCGTATTTGCG (site TGGAGCTCTCG) | 2.13
57 | GAAAGTCCATGGACCGGTTTTCCCGGTAATCCGTATTTGTA (site AAAAGTCCTTA) | 0
58 | ATAAGACCATGGACCGGTTTTCCCGGTAATCCGTATTTGAC (site ATAAGCCCTGT) | 0
59 | GAAGATTCATGGACCGGTTTTCCCGGTAATCCGTATTTGAT (site GAAGATTCTAG) | 0
60 | CGAGGACCATGGACCGGTTTTCCCGGTAATCCGTATTTGGG (site CGAGGACCTAC) | 0
61 | AATTAGGCATGGACCGGTTTTCCCGGTAATCCGTATTTGGA (site AATTAGGCTTC) | 0.746
62 | ATGACGACATGGACCGGTTTTCCCGGTAATCCGTATTTGCA (site ATGACGACTTG) | 1.81
63 | TTCTTCGCATGGACCGGTTTTCCCGGTAATCCGTATTTGCG (site TTCTTCGCTCG) | 0.00387
64 | CACTTGGCATGGACCGGTTTTCCCGGTAATCCGTATTTGGC (site CACTTGGCTGC) | 1.64
65 | GTTTGCCCATGGACCGGTTTTCCCGGTAATCCGTATTTGAT (site GCTTGCCCTAT) | 0.0198
66 | AAGAAGACATGGACCGGTTTTCCCGGTAATCCGTATTTGAA (site AGGAAGACTTG) | 0
67 | GGATGGACATGGACCGGTTTTCCCGGTAATCCGTATTTGCC (site GGATCGACTGG) | 0
68 | TCGGTTGCATGGACCGGTTTTCCCGGTAATCCGTATTTGGC (site TCGGTTGCTGC) | 0.849
69 | TGAAGAGCATGGACCGGTTTTCCCGGTAATCCGTATTTGCA (site TGAAGAGCTTG) | 2.54
70 | ATGTAGGCATGGACCGGTTTTCCCGGTAATCCGTATTTGAC (site ATGTAGGCTGC) | 1.87
71 | GTTTATTCATGGACCGGTTTTCCCGGTAATCCGTATTTGCT (site GTTTATTCTAG) | 1.99
72 | CTCTACACATGGACCGGTTTTCCCGGTAATCCGTATTTGTT (site CTCTACACTAA) | 0.93
73 | GTGCATACATGGACCGGTTTTCCCGGTAATCCGTATTTGGT (site GTGCATACTAC) | 1.51
74 | CCCTAGCCATGGACCGGTTTTCCCGGTAATCCGTATTTGTC (site CCCTAGCCTGA) | 0.265
75 | TTTATAGCATGGACCGGTTTTCCCGGTAATCCGTATTTGCG (site TTTATAGCTCG) | 0.232
